Results as given in US20030091980A1, “Detection and characterization of psychoactives using analysis of network level physiological responses in a neuronal sample” (priority 2001, published 2003).

Columns and labels:
Assay type in all cases: cell-based, Sprague-Dawley rat
[1] = system: hippocampal slice; experiment: Carbachol-induced beta rhythms in hippocampal tissue (64-electrode recording, FFT); conditions: FIG. 2
From the text: (§1) Procedures for the preparation of the recently introduced Multi-Electrode Dish (Panasonic: MED probe) are described by Oka et al., J Neurosci Methods 93: 61-67 (1999). The device has an array of 64 planar microelectrodes, each having a size of 50×50 μm, arranged in an 8 by 8 pattern. Probes used in the experiments described below were medium arrays with 300 μm interelectrode spacing (Panasonic: MED-P530AP).
A 17-25 day old Sprague-Dawley rat was sacrificed by decapitation after anesthesia using halothane (2-Bromo-2-chloro-1,1,1-trifluoroethane, Sigma: B4388), and the whole brain was removed. The brain was immediately soaked in ice-cold, oxygenated preparation buffer of the following composition (in mM): 124 NaCl, 26 NaHCO3, 10 glucose, 3 KCl, 1.25 NaH2PO4, 1.5 CaCl2, 0.5 MgSO4, for approximately 2 minutes. Appropriate portions of the brain were trimmed and placed on the ice-cold stage of a vibrating tissue slicer (Leica: VT-1000S). […]
During electrophysiological recording, the slices on the MED probe were placed in a small CO2 incubator (Yamato: model IC400) at 32° C. […] In this condition, responses were recorded for more than 2 hours. […]
(§2) Spontaneous and evoked field potentials at all 64 sites were recorded simultaneously with the multi-channel recording system (Panasonic: MED64 system) at a 20 kHz sampling rate. […]

[2] = system: hippocampal slice; experiment: Evoked responses following Schaffer collateral stimulation in presence and absence of carbachol (field potentials, current source density)
Experimental: (§3) A 17-25 day old Sprague-Dawley rat was sacrificed by decapitation after anesthesia using halothane (2-Bromo-2-chloro-1,1,1-trifluoroethane, Sigma: B4388), and the whole brain was removed. The brain was immediately soaked in ice-cold, oxygenated preparation buffer of the following composition (in mM): 124 NaCl, 26 NaHCO3, 10 glucose, 3 KCl, 1.25 NaH2PO4, 1.5 CaCl2, 0.5 MgSO4, for approximately 2 minutes. Appropriate portions of the brain were trimmed and placed on the ice-cold stage of a vibrating tissue slicer (Leica: VT-1000S). The stage was immediately filled with both oxygenated and frozen preparation buffers. The thickness of each tissue slice was 350 μm. Each slice was gently taken off the blade using a blunt-end pipette, and immediately soaked in oxygenated preparation buffer for at least 1 hour at room temperature. A slice was then placed on the center of the MED probe, positioned to cover the 8×8 array. After positioning the slice, the MED probe was placed directly in a box filled with 95% O2 and 5% CO2 and allowed to recover and adhere at 32° C. for 1 hour.
(§4) During electrophysiological recording, the slices on the MED probe were placed in a small CO2 incubator (Yamato: model IC400) at 32° C. The slices remained on the MED probe, which was attached to a recording interface, and a moisturized 95% O2 and 5% CO2 gas mixture was blown from above. In this condition, responses were recorded for more than 2 hours.
Carbachol was obtained from Sigma. A carbachol solution was applied to the neuronal samples at known concentrations of either 25 or 50 μM. The lower concentration was used in all except two cases. […] Carbachol solutions were prepared daily from frozen aliquots.
Spontaneous and evoked field potentials at all 64 sites were recorded simultaneously with the multi-channel recording system (Panasonic: MED64 system) at a 20 kHz sampling rate. In the case of the evoked response, one or more than two microelectrodes out of the 64 available were chosen for stimulating. Bipolar constant current pulses (20 to 40 μA, 0.1 msec) were produced by the data acquisition software through the isolator. The stimulating microelectrodes were selected by the 64 switchbox.
The method of continuous, two-dimensional current source density employed has been previously described (Shimono et al., supra). The 2-dimensional array of electrodes allows for simultaneous estimation of current flows in any direction within the plane of the slice. The data was low-pass filtered at 100 Hz and spatially smoothed by a 3×3-weighted average kernel (0 1/8 0, 1/8 1/2 1/8, and 0 1/8 0). […] A limitation of the technique is that only large spatial patterns, with radii≧one-half of the interelectrode distance, can be accurately resolved. Additionally, low-pass filtering removes high-frequency data, limiting the amount of fine detail that can be observed.

[3] = system: hippocampal slice; experiment: Network level evoked response to single pulse Schaffer commissural stimulation during carbachol-induced rhythms, multi-electrode dish
From the text: as §1
For sufficient adhesion of the slice to the probe, the surface of the MED probe was treated with 0.1% polyethylenimine (Sigma: P-3143) in 25 mM borate buffer, pH 8.4, for 8 hours at room temperature. The probe surface was rinsed 3 times with sterile distilled water. The probe (chamber) was then filled with DMEM/F-12 mixed medium, containing 10% fetal bovine serum (GIBCO: 16141-079) and 10% horse serum (GIBCO: 16050-122), for at least 1 hour at 37° C. DMEM/F-12 mixed medium is a 1:1 mixture of Dulbecco's Modified Eagle's Medium and Ham's F-12 (GIBCO: D/F-12 medium, 12400-024), supplemented with N2 supplement (GIBCO: 17502-014) and hydrocortisone (20 nM, Sigma, H0888).
as §3, §4
Carbachol was obtained from Sigma. […]
as §2

[4] = CA1 apical dendrites, presence of carbachol
[5] = single pulse stimulation with carbachol, eight slices
[6] = 100 μM heptachlor, Schaffer commissural stimulation, FIG. 8

SMILES	dominant frequency of rhythms (normalized power spectra, all 64 electrodes) ([1]; 25 μM carbachol)	stability of rhythms ([1]; after carbachol infusion)	intensity of activity (current source density) ([2]; 25 μM carbachol vs without carbachol, 10 ms after stimulation)	spread of activity (current source density) ([2]; 25 μM carbachol vs without carbachol, 10 ms after stimulation, particularly field CA3)	start of slow negative going component after stimulation [2, 4] [ms]	start of slow negative going component after the initial response [2, 4]	return to baseline after stimulation ([2]; CA1 stratum radiatum and oriens, carbachol-induced beta waves, FIG. 4) [ms]	return to baseline of positive-going potential ([2]; CA3 basal dendritic field, carbachol-driven beta rhythms, FIG. 5)	stimulation trials eliciting a sustained network response ([2]; Schaffer collateral stimulation in the presence of cholinergic rhythms)	frequency of bursts of spikes accompanying the first carbachol dependent slow potential ([2]; field CA3)	recordings with responses similar to the control responses [2, 5]	traces with bursts of spikes in CA3 stratum pyramidale and prominent after potentials in CA1 and CA3 [2, 5]	depolarizing phase of the slow component of the waveform ([3]; 100 μM heptachlor, FIG. 8)	fast component, corresponding to the traditional evoked response [3, 6]	slow component of the network complex evoked response [3, 6]	network level evoked response to single pulse Schaffer commissural stimulation upon infusion ([3]; figure legends FIGS. 8-11)
C[N+](C)(C)CCOC(N)=O [carbachol]	in the beta range	stable for over two hours	markedly increased	far greater	25	about 10 msec	140	approximately 125 ms	approximately 70%	100-200 Hz	16 of 53	37 of 53				
ClC1=C(Cl)C2(Cl)C3C(Cl)C=CC3C1(Cl)C2(Cl)Cl (stereo not shown) [heptachlor]													complete elimination	not changed	changed dramatically	changes
